Patent US20240307382A1, “MODULATORS OF THE INTEGRATED STRESS PATHWAY” (Calico Life Sciences LLC, priority 2017, published 2024)

tested on: HEK293T cells carrying the ATF4 luciferase reporter; assay: ATF4-Luc assay (ATF4 luciferase reporter, tunicamycin-treated cells); assay type: cell-based; settings: Homo sapiens, HEK-293T, 1 μg/mL tunicamycin, 7 hours
Description: In order to test exemplary compounds of the invention in a cellular context, a stable VWMD cell line was first constructed. The ATF4 reporter was prepared by fusing the human full-length ATF4 5′-UTR (NCBI Accession No. BC022088.2) in front of the firefly luciferase (FLuc) coding sequence lacking the initiator methionine as described in Sidrauski et al (eLife 2013). The construct was used to produce recombinant retroviruses using standard methods and the resulting viral supermatant was used to transduce ITEK293T cells, which were then subsequently selected with puromycin to generate a stable cell line.
HTEK293T cells carrying the ATF4 luciferase reporter were plated on polylysine coated 384-well plates (Greiner Bio-one) at 30,000 cells per well. Cells were treated the next day with 1 μg/mL tunicamycin and 200 nM of a compound of Formula (I) for 7 hours. Luminescence was measured using One Glo (Promega) as specified by the manufacturer. Cells were maintained in DMEM with L-glutamine supplemented with 10% heat-inactivated FBS (Gibco) and Antibiotic-Antimycotic solution (Gibco).
Table 2 below summarizes the EC50 data obtained using the ATF4-Luc assay for exemplary compounds of the invention.

SMILES	EC50 [nM]
O=C(COc1ccc(Cl)c(F)c1)NC12CCC(NC(=O)c3ccc(OC(F)(F)F)cn3)(C1)C2 [Compound 297, N-{4-[2-(4-chloro-3-fluorophenoxy)acetamido]bicyclo[2.1.1]hexan-1-yl}-5-(trifluoromethoxy)pyridine-2-carboxamide]	< 50
O=C(COc1ccc(Cl)c(F)c1)NC12CCC(NC(=O)c3cc(CO)ccn3)(C1)C2 [Compound 333, N-{4-[2-(4-chloro-3-fluorophenoxy)acetamido]bicyclo[2.1.1]hexan-1-yl}-4-(hydroxymethyl)pyridine-2-carboxamide]	1000 to 2000
N#CCCc1ccc(C(=O)NC23CC(NC(=O)COc4ccc(Cl)c(F)c4)(C2)C3)nc1 [Compound 335, N-{3-[2-(4-chloro-3-fluorophenoxy)acetamido]bicyclo[1.1.1]pentan-1-yl}-5-(2-cyanoethyl)pyridine-2-carboxamide]	50 to 250
O=C(COc1ccc(Cl)c(Cl)c1)NC12CC(NC(=O)c3ccc(Cl)cn3)(C1)C2 [Compound 691, 5-chloro-N-{3-[2-(3,4-dichlorophenoxy)acetamido]bicyclo[1.1.1]pentan-1-yl}pyridine-2-carboxamide]	< 50
COc1ccnc(C(=O)NC23CCC(NC(=O)COc4ccc(Cl)c(F)c4)(CC2)C(O)C3)c1 (stereo not shown) [Compound 924, N-{4-[2-(4-chloro-3-fluorophenoxy)acetamido]-3-hydroxybicyclo[2.2.2]octan-1-yl}-4-methoxypyridine-2-carboxamide]	1000 to 2000
O=C(COc1ccc(Cl)c(F)c1)NC12CCC(NC(=O)c3ccc(-c4ccc(F)cc4)cn3)(CC1)CC2O (stereo not shown) [Compound 939, N-{4-[2-(4-chloro-3-fluorophenoxy)acetamido]-3-hydroxybicyclo[2.2.2]octan-1-yl}-5-(4-fluorophenyl)pyridine-2-carboxamide]	250 to 1000
CCc1cncc(C(=O)NC23CC(NC(=O)COc4ccc(Cl)c(F)c4)(C2)C3)c1 [Compound 948, N-{3-[2-(4-chloro-3-fluorophenoxy)acetamido]bicyclo[1.1.1]pentan-1-yl}-5-ethylpyridine-3-carboxamide]	< 50
CCc1cncc(C(=O)NC23CC(NC(=O)COc4ccc(Cl)c(Cl)c4)(C2)C3)c1 [Compound 949, N-{3-[2-(3,4-dichlorophenoxy)acetamido]bicyclo[1.1.1]pentan-1-yl}-5-ethylpyridine-3-carboxamide]	< 50
O=C(COc1ccc(Cl)c(F)c1)NC12CCC(NC(=O)c3cnc4cc(F)ccc4n3)(CC1)[C@@H](O)C2 [Compound 950, N-{(2S)-4-[2-(4-chloro-3-fluorophenoxy)acetamido]-2-hydroxybicyclo[2.2.2]octan-1-yl}-6-fluoroquinoxaline-2-carboxamide]	< 50
O=C(COc1ccc(Cl)c(F)c1)NC12CC(NC(=O)c3cnc4cc(F)ccc4n3)(C1)C2 [Compound 951, N-{3-[2-(4-chloro-3-fluorophenoxy)acetamido]bicyclo[1.1.1]pentan-1-yl}-6-fluoroquinoxaline-2-carboxamide]	< 50
O=C(COc1ccc(Cl)c(F)c1)NC12CCC(NC(=O)c3cccc(-c4cccc(F)c4)n3)(CC1)CC2O (stereo not shown) [Compound 952, N-{4-[2-(4-chloro-3-fluorophenoxy)acetamido]-3-hydroxybicyclo[2.2.2]octan-1-yl}-6-(3-fluorophenyl)pyridine-2-carboxamide]	< 50
N#Cc1cnccc1NC12CC(NC(=O)COc3ccc(Cl)c(F)c3)(C1)C2 [Compound 953, 2-(4-chloro-3-fluorophenoxy)-N-{3-[(3-cyanopyridin-4-yl)amino]bicyclo[1.1.1]pentan-1-yl}acetamide]	50 to 250
O=C(COc1ccc(Cl)c(F)c1)NC12CC(Nc3cccc(-n4ccccc4=O)n3)(C1)C2 [Compound 954, 2-(4-chloro-3-fluorophenoxy)-N-{3-[(2-oxo-2H-[1,2′-bipyridin]-6′-yl)amino]bicyclo[1.1.1]pentan-1-yl}acetamide]	> 2000
O=C(COc1ccc(Cl)c(F)c1)NC12CC(Nc3ccnc(-n4ccnc4)c3)(C1)C2 [Compound 955, 2-(4-chloro-3-fluorophenoxy)-N-(3-{[2-(1H-imidazol-1-yl)pyridin-4-yl]amino}bicyclo[1.1.1]pentan-1-yl)acetamide]	250 to 1000
O=C(COc1ccc(Cl)c(F)c1)NC12CC(Nc3cccc(N4CCOCC4)n3)(C1)C2 [Compound 957, 2-(4-chloro-3-fluorophenoxy)-N-(3-{[6-(morpholin-4-yl)pyridin-2-yl]amino}bicyclo[1.1.1]pentan-1-yl)acetamide]	250 to 1000
O=C(COc1ccc(Cl)c(F)c1)NC12CC(Nc3ccc4ncnc(N5CCOCC5)c4c3)(C1)C2 [Compound 958, 2-(4-chloro-3-fluorophenoxy)-N-(3-{[4-(morpholin-4-yl)quinazolin-6-yl]amino}bicyclo[1.1.1]pentan-1-yl)acetamide]	50 to 250

SMILES	EC50 [nM]
CN1CCN(c2ncnc3ccc(NC45CC(NC(=O)COc6ccc(Cl)c(F)c6)(C4)C5)cc23)CC1 [Compound 959, 2-(4-chloro-3-fluorophenoxy)-N-(3-{[4-(4-methylpiperazin-1-yl)quinazolin-6-yl]amino}bicyclo[1.1.1]pentan-1-yl)acetamide]	> 2000
COC(=O)c1ccc2nccc(NC34CC(NC(=O)COc5ccc(Cl)c(F)c5)(C3)C4)c2c1 [Compound 960, methyl 4-({3-[2-(4-chloro-3-fluorophenoxy)acetamido]bicyclo[1.1.1]pentan-1-yl}amino)quinoline-6-carboxylate]	< 50
NC(=O)c1cccc(NC23CC(NC(=O)COc4ccc(Cl)c(F)c4)(C2)C3)n1 [Compound 961, 6-({3-[2-(4-chloro-3-fluorophenoxy)acetamido]bicyclo[1.1.1]pentan-1-yl}amino)pyridine-2-carboxamide]	1000 to 2000
O=C(COc1ccc(Cl)c(F)c1)NC12CC(Nc3cc(N4CCCC4)ccn3)(C1)C2 [Compound 962, 2-(4-chloro-3-fluorophenoxy)-N-(3-{[4-(pyrrolidin-1-yl)pyridin-2-yl]amino}bicyclo[1.1.1]pentan-1-yl)acetamide]	1000 to 2000
O=C(COc1ccc(Cl)c(F)c1)NC12CC(Nc3cc(N4CCOCC4)ccn3)(C1)C2 [Compound 963, 2-(4-chloro-3-fluorophenoxy)-N-(3-{[4-(morpholin-4-yl)pyridin-2-yl]amino}bicyclo[1.1.1]pentan-1-yl)acetamide]	> 2000
COC(=O)c1ccnc(NC23CC(NC(=O)COc4ccc(Cl)c(F)c4)(C2)C3)c1 [Compound 964, methyl 2-({3-[2-(4-chloro-3-fluorophenoxy)acetamido]bicyclo[1.1.1]pentan-1-yl}amino)pyridine-4-carboxylate]	> 2000
CCOC(=O)c1cncc(NC23CC(NC(=O)COc4ccc(Cl)c(F)c4)(C2)C3)c1 [Compound 965, ethyl 5-({3-[2-(4-chloro-3-fluorophenoxy)acetamido]bicyclo[1.1.1]pentan-1-yl}amino)pyridine-3-carboxylate]	250 to 1000
O=C(COc1ccc(Cl)c(F)c1)NC12CC(Nc3cnc4nccnc4c3)(C1)C2 [Compound 966, 2-(4-chloro-3-fluorophenoxy)-N-{3-[(pyrido[2,3-b]pyrazin-7-yl)amino]bicyclo[1.1.1]pentan-1-yl}acetamide]	250 to 1000
CN(C(=O)c1cc(C(F)F)no1)C12CCC(NC(=O)COc3ccc(Cl)c(F)c3)(CC1)[C@@H](O)C2 [Compound 967, N-{(3S)-4-[2-(4-chloro-3-fluorophenoxy)acetamido]-3-hydroxybicyclo[2.2.2]octan-1-yl}-3-(difluoromethyl)-N-methyl-1,2-oxazole-5-carboxamide]	1000 to 2000
Cc1cc(C(=O)N(C)C23CCC(NC(=O)COc4ccc(Cl)c(Cl)c4)(CC2)[C@@H](O)C3)on1 [Compound 968, N-{(3S)-4-[2-(3,4-dichlorophenoxy)acetamido]-3-hydroxybicyclo[2.2.2]octan-1-yl}-N,3-dimethyl-1,2-oxazole-5-carboxamide]	1000 to 2000
O=C(COc1ccc(Cl)c(F)c1)NC12CCC(NC(=O)c3coc(C(F)F)n3)(CC1)C[C@@H]2O [Compound 969, N-{(3S)-4-[2-(4-chloro-3-fluorophenoxy)acetamido]-3-hydroxybicyclo[2.2.2]octan-1-yl}-2-(difluoromethyl)-1,3-oxazole-4-carboxamide]	< 50
CC(O)c1ncc(C(=O)NC23CCC(NC(=O)COc4ccc(Cl)c(F)c4)(CC2)CC3)s1 (stereo not shown) [Compound 970, N-{4-[2-(4-chloro-3-fluorophenoxy)acetamido]bicyclo[2.2.2]octan-1-yl}-2-(1-hydroxyethyl)-1,3-thiazole-5-carboxamide]	> 2000
O=C(COc1ccc(Cl)c(Cl)c1)NC12CC(NC(=O)c3cc(O)c4cc(Cl)ccc4n3)(C1)C2 [Compound 971, 6-chloro-N-{3-[2-(3,4-dichlorophenoxy)acetamido]bicyclo[1.1.1]pentan-1-yl}-4-hydroxyquinoline-2-carboxamide]	< 50
O=C(COc1ccc(Cl)c(F)c1)NC12CC(NC(=O)c3cc4c(cn3)CCCC4)(C1)C2 [Compound 972, N-{3-[2-(4-chloro-3-fluorophenoxy)acetamido]bicyclo[1.1.1]pentan-1-yl}-5,6,7,8-tetrahydroisoquinoline-3-carboxamide]	50 to 250
O=C(COc1ccc(Cl)c(F)c1)NC12CCC(NC(=O)c3cnc4cc(C(F)(F)F)ccc4n3)(CC1)C[C@@H]2O [Compound 973, N-{(3S)-4-[2-(4-chloro-3-fluorophenoxy)acetamido]-3-hydroxybicyclo[2.2.2]octan-1-yl}-6-(trifluoromethyl)quinoxaline-2-carboxamide]	< 50
